Laboratory results: patent US20100048644A1 (BEIJING HUAANFO BIOMEDICAL RESEARCH CENTRE INC., priority 2006, published 2010)
Several values for one entry are separate records, joined by “and”; a condition that tells them apart may be missing. Identical values can stand only once.

Legend:
[1] = tested on: patients with low urinary tract syndrome (LUTS) and mild to moderate hypertension; assay: Clinical study, Amlodipine 5 mg vs Terazosin 2 mg for 4 weeks: IPSS, urinary flow rate, blood pressure; format: in vivo, human; set-up: key to BOO (obstructive symptoms score) / OAB (irritative symptoms score): IPSS sub-scores in points (symptom items of IPSS); conditions: for Percentage of improvement at Week 4: BOO / Percentage of improvement at Week 4: DBP / Percentage of improvement at Week 4: IPSS / Percentage of improvement at Week 4: OAB / Percentage of improvement at Week 4: Qave / Percentage of improvement at Week 4: Qmax / Percentage of improvement at Week 4: SBP: Week 4 vs Week 0
Excerpt: 1) Male, 50-75 years old. […] 3) International Prostate Symptom Score (IPSS)≧8 points
Storage, reservation and delivery of drugs were in accordance with Standard Operation Procedure (SOP).
Obstructive symptoms score includes hesitancy of micturition, reduced or interrupted urinary stream and sensation of incomplete bladder emptying, which mainly reflect BOO. Irritative symptoms score refers to urinary urgency and frequency, and an increase in night micturition, reflecting OAB symptoms. In this study, a total score of IPSS is considered as primary index. Sub-scores on BOO and OAB were also considered.
All data, doubly entered using Epi-info 3.0 and presented as mean±standard deviation (SD), were analyzed using SAS 8.0. A paired t-test was employed to compare pre- and post-treatment scores, and a multiple regression analysis was further performed to adjust for important covariates. Difference was considered significant at P<0.05.

[2] = tested on: spontaneous hypertensive rats (SHR) with prostate hyperplasia; assay: Urodynamic parameters and urine volumes in spontaneous hypertensive rats (SHR) with prostate hyperplasia; format: in vivo, rat (SHR); conditions: Amlodipine 0.5 mg/kg (A3) oral once daily 14 days
Procedure: (§1) In the treatment groups, the rats were orally administered by infusion at 1 ml/100 g body weight once daily for 14 consecutive days after 7-day injection with testosterone propionate. In the blank and model groups, the rats were orally perfused with isovolumetric physiological saline.
(§2) The rats were anaesthetized by a peritoneal injection of 20% ethyl carbamate at a dose of 1000 mg/kg. The rat bladder was exposed by cutting a longitudinal incision on the upper of pubic arch. Piercing the top of bladder made a little hole, where a catheter with cannulas was inserted. The outside cannula (Φ 1.2 mm) with a pressreceptor was linked to PC-Lab multi-lead physiological recording system. The inside cannula (Φ 0.61 mm) was connected to an injection pump with constant infusion speed (2 ml/h). After last administration, the urodynamic parameters, single urine volume, and residual urine volume in rats were respectively collected.
(§3) Data were presented as mean±SD. One way-ANOVA was employed for group comparison.

rats with BPH = assay: Urodynamic parameters and urine volumes in castrated, testosterone propionate-treated SD rats with BPH; format: in vivo, rat (male SD)
Procedure: Afterwards, the bilateral testicles of the rats were resected under an aseptic condition. Then the rats received an intramuscular injection of penicillin at 20000 U/kg/d for 3 days, and 1 week later a subcutaneous injection of testosterone propionate (dissolved in olive oil) at 0.5 mg/pec, once daily for 21 consecutive days.
as §1, §2, §3

[3] = Week 0 (before treatment), groups Amlodipine 5 mg (N=90), Terazosin 2 mg (N=62)
[4] = Week 4, Amlodipine 5 mg or Terazosin 2 mg oral for 4 consecutive weeks
[5] = Amlodipine 5 mg or Terazosin 2 mg oral for 4 weeks
[6] = multiple regression adjusted for age and BMI, Amlodipine 5 mg vs Terazosin 2 mg, 4 weeks
[7] = multiple regression, crude, Amlodipine 5 mg vs Terazosin 2 mg, 4 weeks
[8] = Amlodipine 0.25 mg/kg (A1) oral once daily 14 days
[9] = Amlodipine 0.5 mg/kg (A2) oral once daily 14 days

CCOC(=O)C1=C(COCCN)NC(C)=C(C(=O)OC)C1c1ccccc1Cl (stereo not drawn) [Amlodipine]
BOO (obstructive symptoms score) [1, 3]: 9.1 ± 4.2 | DBP [1, 3]: 88.6 ± 8.9 mmHg | OAB (irritative symptoms score) [1, 3]: 7.3 ± 3.3 | Qave [1, 3]: 8.9 ± 4.1 mL/s | Qmax [1, 3]: 17.3 ± 6.7 mL/s | SBP [1, 3]: 155.4 ± 16.1 mmHg | BOO (obstructive symptoms score) [1, 4]: 5.8 ± 4.6 | DBP [1, 4]: 82.0 ± 8.9 mmHg | IPSS [1, 4]: 11.1 ± 6.7 | OAB (irritative symptoms score) [1, 4]: 5.5 ± 3.2 | Qave [1, 4]: 8.8 ± 3.8 mL/s | Qmax [1, 4]: 17.7 ± 6.9 mL/s | SBP [1, 4]: 140.9 ± 15.4 mmHg | Percentage of improvement at Week 4: BOO [1, 5]: 33.3 ± 53.2 % | Percentage of improvement at Week 4: DBP [1, 5]: 7.2 ± 7.1 % and 7.22 ± 7.09% | Percentage of improvement at Week 4: IPSS [1, 5]: 30.2 ± 39.7 % and 30.17 ± 39.7% | Percentage of improvement at Week 4: OAB [1, 5]: 17.3 ± 49.3 % | Percentage of improvement at Week 4: Qave [1, 5]: 5.0 ± 35.2% and 5.04 ± 35.25% | Percentage of improvement at Week 4: Qmax [1, 5]: 7.1 ± 41.1% and 7.09 ± 41.10% | Percentage of improvement at Week 4: SBP [1, 5]: 8.9 ± 9.6 % and 8.89 ± 9.61% | Percentage of improvement, (2)-(1) Amlodipine minus Terazosin, β Adjust: BOO [1, 6]: 0.3 | Percentage of improvement, (2)-(1) Amlodipine minus Terazosin, β Adjust: DBF [1, 6]: 5.1 | Percentage of improvement, (2)-(1) Amlodipine minus Terazosin, β Adjust: IPSS [1, 6]: 1.4 | Percentage of improvement, (2)-(1) Amlodipine minus Terazosin, β Adjust: OAB [1, 6]: 8.6 | Percentage of improvement, (2)-(1) Amlodipine minus Terazosin, β Adjust: Qave [1, 6]: −8.4 | Percentage of improvement, (2)-(1) Amlodipine minus Terazosin, β Adjust: Qmax [1, 6]: −5.0 | Percentage of improvement, (2)-(1) Amlodipine minus Terazosin, β Adjust: SBP [1, 6]: 5.7 | Percentage of improvement, (2)-(1) Amlodipine minus Terazosin, β Crude: BOO [1, 7]: 1.1 | Percentage of improvement, (2)-(1) Amlodipine minus Terazosin, β Crude: DBF [1, 7]: 4.9 | Percentage of improvement, (2)-(1) Amlodipine minus Terazosin, β Crude: IPSS [1, 7]: 2.0 | Percentage of improvement, (2)-(1) Amlodipine minus Terazosin, β Crude: OAB [1, 7]: 9.6 | Percentage of improvement, (2)-(1) Amlodipine minus Terazosin, β Crude: Qave [1, 7]: −8.7 | Percentage of improvement, (2)-(1) Amlodipine minus Terazosin, β Crude: Qmax [1, 7]: −5.7 | Percentage of improvement, (2)-(1) Amlodipine minus Terazosin, β Crude: SBP [1, 7]: 5.6 | Interval of micturition [2]: 786.0 ± 237.5 s | Peak value of micturition pressure [2]: 31.8 ± 7.3 mmHg | Point pressure of micturition [2]: 31.4 ± 3.6 mmHg | Qave. (average urinary flow rate) [2]: 4.4 ± 1.6 mL/s | Time of micturition [2]: 8.0 ± 1.1 s | Interval of micturition (rats with BPH; [8]): 734.8 ± 210.5 s | Peak value of micturition pressure (rats with BPH; [8]): 37.5 ± 7.0 mmHg | Point pressure of micturition (rats with BPH; [8]): 33.4 ± 3.3 mmHg | Qave. (average urinary flow rate) (rats with BPH; [8]): 3.7 ± 1.2 mL/s | Time of micturition (rats with BPH; [8]): 8.9 ± 1.6 s | Interval of micturition (rats with BPH; [9]): 762.3 ± 274.8 s | Peak value of micturition pressure (rats with BPH; [9]): 30.5 ± 5.5 mmHg | Point pressure of micturition (rats with BPH; [9]): 30.6 ± 3.9 mmHg | Qave. (average urinary flow rate) (rats with BPH; [9]): 4.0 ± 1.9 mL/s | Time of micturition (rats with BPH; [9]): 8.4 ± 1.8 s

COc1cc2nc(N3CCN(C(=O)C4CCCO4)CC3)nc(N)c2cc1OC (stereo not drawn) [Terazosin]
indices improved between week 0 and week 4 [1, 5]: remarkable improvement in IPSS, BOO-related score, maximum urinary flow rate (Qmax) and Qave, and a decrease in systolic blood pressure | indices without improvement between week 0 and week 4 [1, 5]: no improvement in OAB-related score and diastolic blood pressure | BOO (obstructive symptoms score) [1, 3]: 6.6 ± 3.5 | DBP [1, 3]: 86.6 ± 9.0 mmHg | IPSS [1, 3]: 13.2 ± 4.4 | OAB (irritative symptoms score) [1, 3]: 6.6 ± 3.0 | Qave [1, 3]: 8.9 ± 3.9 mL/s | Qmax [1, 3]: 17.7 ± 7.0 mL/s | SBP [1, 3]: 152.8 ± 15.9 mmHg | BOO (obstructive symptoms score) [1, 4]: 4.2 ± 4.3 | DBP [1, 4]: 84.5 ± 11.4 mmHg | IPSS [1, 4]: 9.4 ± 5.9 | OAB (irritative symptoms score) [1, 4]: 5.3 ± 2.8 | Qave [1, 4]: 9.9 ± 4.2 mL/s | Qmax [1, 4]: 19.4 ± 7.4 mL/s | SBP [1, 4]: 147.0 ± 17.8 mmHg | Percentage of improvement at Week 4: BOO [1, 5]: 32.2 ± 63.5 % | Percentage of improvement at Week 4: DBP [1, 5]: 2.3 ± 10.1% and 2.31 ± 10.12% | Percentage of improvement at Week 4: IPSS [1, 5]: 28.1 ± 40.5 % and 28.15 ± 40.5% | Percentage of improvement at Week 4: OAB [1, 5]: 7.7 ± 54.8% | Percentage of improvement at Week 4: Qave [1, 5]: 13.8 ± 25.9 % and 13.77 ± 25.86% | Percentage of improvement at Week 4: Qmax [1, 5]: 12.8 ± 30.5 % and 12.8 ± 30.47% | Percentage of improvement at Week 4: SBP [1, 5]: 3.3 ± 11.9 % and 3.28 ± 11.92%
